The compounds below were run against T1, KRas G12C (Homo sapiens, UniProt P01116, G12C) (assay: Inhibition of KRas G12C-dependent cell growth: Phospho-ERK in NCI-H358 cells). Conditions: NCI-H358 cells expressing KRas G12C; Phospho-ERK (Thr202/Tyr204) normalized to GAPDH; 3 hours compound; 4 parameter fit.
T1 construct: NCI-H358 cells (ATCC CRL-5807) express KRas G12C
Format: cell-based
In short: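 NCI-H358 cells (KRas G12C) exposed to compounds for 3 h, 0.5% DMSO final. Fixed cells immunostained for pERK(Thr202/Tyr204) and GAPDH with infrared secondary antibodies. pERK normalized to GAPDH, expressed as percent of DMSO control; IC50 from 4-parameter dose-response fit.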

T1 sequence (P01116 1-188 isoform P01116-2 G12C): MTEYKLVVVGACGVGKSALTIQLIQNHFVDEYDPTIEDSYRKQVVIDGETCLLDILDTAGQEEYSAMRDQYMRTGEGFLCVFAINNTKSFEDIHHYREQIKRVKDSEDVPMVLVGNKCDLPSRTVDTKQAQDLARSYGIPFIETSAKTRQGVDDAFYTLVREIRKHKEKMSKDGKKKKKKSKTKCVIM

Structure (SMILES) | IC50 [nM]
C=CC(=O)N1C[C@@H]2[C@H]1CCN2c1nc(C)nc2c(F)c(-c3cccc4ccc(F)c(Cl)c34)ncc12 [Example 231] | 4280
C=CC(=O)N1C[C@H]2[C@@H]1CCN2c1ncnc2c(F)c(-c3cccc4ccc(F)c(Cl)c34)ncc12 [Example 232] | 10000
C=CC(=O)N1CCCC12CCN(c1ncnc3c(F)c(-c4cccc5ccc(F)c(Cl)c45)ncc13)C2 (stereo not drawn) [Example 233] | 10000
C=CC(=O)N1CCN(c2ncnc3c(F)c(-c4cccc5ccc(F)c(Cl)c45)ncc23)CC12CC2 [Example 234] | 10000
C=CC(=O)N1CCC12CCN(c1ncnc3c(F)c(-c4cccc5ccc(F)c(Cl)c45)ncc13)C2 (stereo not drawn) [Example 235] | 10000
C=CC(=O)N1CCCC12CN(c1ncnc3c(F)c(-c4cccc5ccc(F)c(Cl)c45)ncc13)C2 [Example 236] | 10000
C=CC(=O)N1CCN(c2nc(C(F)F)nc3c(F)c(-c4cccc5ccc(F)c(Cl)c45)ncc23)C[C@@H]1CC#N [Example 237] | 230
C=CC(=O)N1CC[C@@H]2[C@H]1CN2c1nc(C)nc2c(F)c(-c3cccc4ccc(F)c(Cl)c34)ncc12 [Example 238] | 379
C=CC(=O)N1CC[C@@H]2[C@H]1CN2c1nc(OC[C@@H]2CCCN2C)nc2c(F)c(-c3cccc4ccc(F)c(Cl)c34)ncc12 [Example 239] | 5
C=C(F)C(=O)N1CCN(c2nc(O[C@@H]3CO[C@H]4[C@@H]3OC[C@H]4O)nc3c(F)c(-c4cccc5ccc(F)c(Cl)c45)ncc23)C[C@@H]1CC#N [Example 240] | 10000
C=CC(=O)N1CCN(c2ncnc3c(F)c(-c4cccc(Cl)c4C4CC4)ncc23)C[C@@H]1CC#N [Example 241] | 111
C=CC(=O)N1CCN(c2ncnc3c(F)c(-c4c(Cl)c(C)cc5[nH]ncc45)ncc23)C[C@@H]1CC#N [Example 242] | 187

Second part, the compound after the results:

IC50 [nM] | Structure (SMILES)
1200 | C=CC(=O)N1CCN(c2ncnc3c(F)c(-c4c(N)c(Cl)cc(Cl)c4F)ncc23)C[C@@H]1CC#N [Example 243]
88 | C=C(F)C(=O)N1CCN(c2nc(OC[C@@H]3CC4CCN3C4)nc3c(F)c(-c4cccc5ccc(F)c(Cl)c45)ncc23)C[C@@H]1CC#N (stereo partly drawn) [Example 244]
4040 | C#Cc1cccc2cccc(-c3ncc4c(N5CC[C@@H]6[C@H]5CN6C(=O)C=C)ncnc4c3F)c12 [Example 245, 1-((1R,5R)-2-(7-(8-ethynylnaphthalen-1-yl)-8-fluoropyrido[4,3-d]pyrimidin-4-yl)-2,6-diazabicyclo[3.2.0]heptan-6-yl)prop-2-en-1-one]
6470 | C=CC(=O)N1CCC12CN(c1ncnc3c(F)c(-c4cccc5ccc(F)c(Cl)c45)ncc13)C2 [Example 246, 1-(6-(7-(8-chloro-7-fluoronaphthalen-1-yl)-8-fluoropyrido[4,3-d]pyrimidin-4-yl)-1,6-diazaspiro[3.3]heptan-1-yl)prop-2-en-1-one]
105 | C#Cc1cccc2cccc(-c3ncc4c(N5C[C@@H]6[C@H]5CCN6C(=O)C=C)ncnc4c3F)c12 [Example 247, 1-((1R,5R)-6-(7-(8-ethynylnaphthalen-1-yl)-8-fluoropyrido[4,3-d]pyrimidin-4-yl)-2,6-diazabicyclo[3.2.0]heptan-2-yl)prop-2-en-1-one]
1250 | C=CC(=O)N1CCN(c2ncnc3c(F)c(-c4cc(F)cc5ccccc45)ncc23)C[C@@H]1CC#N [Example 249]
91 | C=CC(=O)N1CCN(c2ncnc3c(F)c(-c4c(C)c(Cl)cc5[nH]ncc45)ncc23)C[C@@H]1CC#N [Example 250]
799 | C=CC(=O)N1CC[C@@H]2[C@H]1CN2c1ncnc2c(F)c(-c3cncc4cccc(Cl)c34)ncc12 [Example 251]
29 | C=CC(=O)N1CC[C@@H]2[C@H]1CN2c1nc(OC[C@@H]2[C@@H]3C[C@@H]3CN2C)nc2c(F)c(-c3cccc4ccc(F)c(Cl)c34)ncc12 [Example 252]

— US11548888B2, “KRas G12C inhibitors” (Mirati Therapeutics, Inc., priority 2019, dated 2023)
